The NIST ThermoML archive (doi:10.1016/j.jct.2012.11.032)
± gives the expanded uncertainty stated by the source.

Assay: xn = mol fraction of the nth substance listed
Details: 101 kPa, Liquid; for mass density: Vibrating tube method; for speed of sound: Sing-around technique in a fixed-path interferometer

## CCCCCCCC[n+]1ccn(C)c1.[Cl-] [1-methyl-3-octylimidazolium chloride] + O
298 K, x1 = 0.000276
  mass density: 997.161 ± 0.1 kg/m3
298 K, x1 = 0.000495
  mass density: 997.221 ± 0.1 kg/m3
298 K, x1 = 0.000781
  mass density: 997.313 ± 0.1 kg/m3
298 K, x1 = 0.00102
  mass density: 997.386 ± 0.1 kg/m3
298 K, x1 = 0.0013
  mass density: 997.479 ± 0.1 kg/m3
298 K, x1 = 0.001503
  mass density: 997.527 ± 0.1 kg/m3
298 K, x1 = 0.001892
  mass density: 997.639 ± 0.1 kg/m3
298 K, x1 = 0.002073
  mass density: 997.696 ± 0.1 kg/m3
298 K, x1 = 0.002376
  mass density: 997.786 ± 0.1 kg/m3
298 K, x1 = 0.00261
  mass density: 997.846 ± 0.1 kg/m3
298 K, x1 = 0.002774
  mass density: 997.889 ± 0.1 kg/m3
298 K, x1 = 0.003111
  mass density: 997.987 ± 0.1 kg/m3
298 K, x1 = 0.003716
  mass density: 998.157 ± 0.1 kg/m3
298 K, x1 = 0.003899
  mass density: 998.198 ± 0.1 kg/m3
298 K, x1 = 0.004079
  mass density: 998.254 ± 0.1 kg/m3
298 K, x1 = 0.004181
  mass density: 998.28 ± 0.1 kg/m3
298 K, x1 = 0.004462
  mass density: 998.349 ± 0.1 kg/m3
298 K, x1 = 0.004601
  mass density: 998.382 ± 0.1 kg/m3
298 K, x1 = 0.004981
  mass density: 998.469 ± 0.1 kg/m3
298 K, x1 = 0.005198
  mass density: 998.52 ± 0.1 kg/m3
298 K, x1 = 0.005607
  mass density: 998.619 ± 0.1 kg/m3
298 K, x1 = 0.005782
  mass density: 998.649 ± 0.1 kg/m3
303 K, x1 = 0.000276
  speed of sound: 1511.7 ± 1.2 m/s
  mass density: 995.767 ± 0.1 kg/m3
303 K, x1 = 0.000495
  speed of sound: 1513.5 ± 1.2 m/s
  mass density: 995.808 ± 0.1 kg/m3
303 K, x1 = 0.000781
  speed of sound: 1515.8 ± 1.2 m/s
  mass density: 995.896 ± 0.1 kg/m3
303 K, x1 = 0.00102
  speed of sound: 1517.8 ± 1.2 m/s
  mass density: 995.954 ± 0.1 kg/m3
303 K, x1 = 0.0013
  speed of sound: 1520 ± 1.2 m/s
  mass density: 996.029 ± 0.1 kg/m3
303 K, x1 = 0.001503
  speed of sound: 1521.6 ± 1.2 m/s
  mass density: 996.067 ± 0.1 kg/m3
303 K, x1 = 0.001892
  speed of sound: 1524.7 ± 1.2 m/s
  mass density: 996.169 ± 0.1 kg/m3
303 K, x1 = 0.002073
  speed of sound: 1526.1 ± 1.2 m/s
  mass density: 996.211 ± 0.1 kg/m3
303 K, x1 = 0.002376
  speed of sound: 1528.3 ± 1.2 m/s
  mass density: 996.287 ± 0.1 kg/m3
303 K, x1 = 0.00261
  speed of sound: 1530.2 ± 1.2 m/s
  mass density: 996.341 ± 0.1 kg/m3
303 K, x1 = 0.002774
  speed of sound: 1531.2 ± 1.2 m/s
  mass density: 996.377 ± 0.1 kg/m3
303 K, x1 = 0.003111
  speed of sound: 1533.7 ± 1.2 m/s
  mass density: 996.455 ± 0.1 kg/m3
303 K, x1 = 0.003716
  speed of sound: 1537.7 ± 1.2 m/s
  mass density: 996.597 ± 0.1 kg/m3
303 K, x1 = 0.003899
  speed of sound: 1538.8 ± 1.2 m/s
  mass density: 996.633 ± 0.1 kg/m3
303 K, x1 = 0.004079
  speed of sound: 1540 ± 1.2 m/s
  mass density: 996.675 ± 0.1 kg/m3
303 K, x1 = 0.004181
  speed of sound: 1540.7 ± 1.2 m/s
  mass density: 996.696 ± 0.1 kg/m3
303 K, x1 = 0.004462
  speed of sound: 1542.4 ± 1.2 m/s
  mass density: 996.755 ± 0.1 kg/m3
303 K, x1 = 0.004601
  speed of sound: 1543.2 ± 1.2 m/s
  mass density: 996.78 ± 0.1 kg/m3
303 K, x1 = 0.004981
  speed of sound: 1545.2 ± 1.2 m/s
  mass density: 996.85 ± 0.1 kg/m3
303 K, x1 = 0.005198
  speed of sound: 1546.2 ± 1.2 m/s
  mass density: 996.89 ± 0.1 kg/m3
303 K, x1 = 0.005607
  speed of sound: 1548.2 ± 1.2 m/s
  mass density: 996.962 ± 0.1 kg/m3
303 K, x1 = 0.005782
  speed of sound: 1549 ± 1.2 m/s
  mass density: 996.986 ± 0.1 kg/m3
308 K, x1 = 0.000276
  speed of sound: 1522.2 ± 1.2 m/s
  mass density: 994.15 ± 0.1 kg/m3
308 K, x1 = 0.000495
  speed of sound: 1523.8 ± 1.2 m/s
  mass density: 994.182 ± 0.1 kg/m3
308 K, x1 = 0.000781
  speed of sound: 1526 ± 1.2 m/s
  mass density: 994.262 ± 0.1 kg/m3
308 K, x1 = 0.00102
  speed of sound: 1527.8 ± 1.2 m/s
  mass density: 994.297 ± 0.1 kg/m3
308 K, x1 = 0.0013
  speed of sound: 1529.8 ± 1.2 m/s
  mass density: 994.364 ± 0.1 kg/m3
308 K, x1 = 0.001503
  speed of sound: 1531.3 ± 1.2 m/s
  mass density: 994.399 ± 0.1 kg/m3
308 K, x1 = 0.001892
  speed of sound: 1534.1 ± 1.2 m/s
  mass density: 994.479 ± 0.1 kg/m3
308 K, x1 = 0.002073
  speed of sound: 1535.4 ± 1.2 m/s
  mass density: 994.514 ± 0.1 kg/m3
308 K, x1 = 0.002376
  speed of sound: 1537.4 ± 1.2 m/s
  mass density: 994.575 ± 0.1 kg/m3
308 K, x1 = 0.00261
  speed of sound: 1539.1 ± 1.2 m/s
  mass density: 994.623 ± 0.1 kg/m3
308 K, x1 = 0.002774
  speed of sound: 1540.1 ± 1.2 m/s
  mass density: 994.653 ± 0.1 kg/m3
308 K, x1 = 0.003111
  speed of sound: 1542.3 ± 1.2 m/s
  mass density: 994.711 ± 0.1 kg/m3
308 K, x1 = 0.003716
  speed of sound: 1545.9 ± 1.2 m/s
  mass density: 994.828 ± 0.1 kg/m3
308 K, x1 = 0.003899
  speed of sound: 1546.9 ± 1.2 m/s
  mass density: 994.859 ± 0.1 kg/m3
308 K, x1 = 0.004079
  speed of sound: 1548 ± 1.2 m/s
  mass density: 994.891 ± 0.1 kg/m3
308 K, x1 = 0.004181
  speed of sound: 1548.6 ± 1.2 m/s
  mass density: 994.908 ± 0.1 kg/m3
308 K, x1 = 0.004462
  speed of sound: 1550.1 ± 1.2 m/s
  mass density: 994.953 ± 0.1 kg/m3
308 K, x1 = 0.004601
  speed of sound: 1550.8 ± 1.2 m/s
  mass density: 994.974 ± 0.1 kg/m3
308 K, x1 = 0.004981
  speed of sound: 1552.6 ± 1.2 m/s
  mass density: 995.028 ± 0.1 kg/m3
308 K, x1 = 0.005198
  speed of sound: 1553.5 ± 1.2 m/s
  mass density: 995.061 ± 0.1 kg/m3
308 K, x1 = 0.005607
  speed of sound: 1555.3 ± 1.2 m/s
  mass density: 995.112 ± 0.1 kg/m3
308 K, x1 = 0.005782
  speed of sound: 1555.9 ± 1.2 m/s
  mass density: 995.128 ± 0.1 kg/m3
313 K, x1 = 0.000276
  speed of sound: 1531.1 ± 1.2 m/s
  mass density: 992.324 ± 0.1 kg/m3
313 K, x1 = 0.000495
  speed of sound: 1532.6 ± 1.2 m/s
  mass density: 992.347 ± 0.1 kg/m3
313 K, x1 = 0.000781
  speed of sound: 1534.6 ± 1.2 m/s
  mass density: 992.417 ± 0.1 kg/m3
313 K, x1 = 0.00102
  speed of sound: 1536.2 ± 1.2 m/s
  mass density: 992.447 ± 0.1 kg/m3
313 K, x1 = 0.0013
  speed of sound: 1538.1 ± 1.2 m/s
  mass density: 992.496 ± 0.1 kg/m3
313 K, x1 = 0.001503
  speed of sound: 1539.5 ± 1.2 m/s
  mass density: 992.524 ± 0.1 kg/m3
313 K, x1 = 0.001892
  speed of sound: 1542 ± 1.2 m/s
  mass density: 992.591 ± 0.1 kg/m3
313 K, x1 = 0.002073
  speed of sound: 1543.2 ± 1.2 m/s
  mass density: 992.619 ± 0.1 kg/m3
313 K, x1 = 0.002376
  speed of sound: 1545 ± 1.2 m/s
  mass density: 992.664 ± 0.1 kg/m3
313 K, x1 = 0.00261
  speed of sound: 1546.6 ± 1.2 m/s
  mass density: 992.706 ± 0.1 kg/m3
313 K, x1 = 0.002774
  speed of sound: 1547.5 ± 1.2 m/s
  mass density: 992.728 ± 0.1 kg/m3
313 K, x1 = 0.003111
  speed of sound: 1549.5 ± 1.2 m/s
  mass density: 992.774 ± 0.11 kg/m3
313 K, x1 = 0.003716
  speed of sound: 1552.7 ± 1.2 m/s
  mass density: 992.866 ± 0.11 kg/m3
313 K, x1 = 0.003899
  speed of sound: 1553.7 ± 1.2 m/s
  mass density: 992.89 ± 0.11 kg/m3
313 K, x1 = 0.004079
  speed of sound: 1554.6 ± 1.2 m/s
  mass density: 992.912 ± 0.11 kg/m3
313 K, x1 = 0.004181
  speed of sound: 1555.1 ± 1.2 m/s
  mass density: 992.929 ± 0.11 kg/m3
313 K, x1 = 0.004462
  speed of sound: 1556.5 ± 1.2 m/s
  mass density: 992.963 ± 0.11 kg/m3
313 K, x1 = 0.004601
  speed of sound: 1557.1 ± 1.2 m/s
  mass density: 992.978 ± 0.11 kg/m3
313 K, x1 = 0.004981
  speed of sound: 1558.7 ± 1.2 m/s
  mass density: 993.015 ± 0.11 kg/m3
313 K, x1 = 0.005198
  speed of sound: 1559.5 ± 1.2 m/s
  mass density: 993.04 ± 0.11 kg/m3
313 K, x1 = 0.005607
  speed of sound: 1561 ± 1.2 m/s
  mass density: 993.076 ± 0.11 kg/m3
313 K, x1 = 0.005782
  speed of sound: 1561.6 ± 1.2 m/s
  mass density: 993.084 ± 0.11 kg/m3
